Laboratory results from BindingDB's records for patent US20250019357 (Tactogen, 2025).
pEC50, pIC50, pKi: −log10 of the molar value.

Experiments:
[1] = molecular target: 5-hydroxytryptamine receptor 1B (Homo sapiens, UniProt P28222); experiment: 5-HT1BR cAMP Secondary Messenger Agonist Assay
Source text: The 5-HT1BR cAMP secondary messenger agonist assay used a panel of CHO-K1 cell lines stably expressing non-tagged GPCRs that endogenously signal through cAMP. Hit Hunter cAMP assays monitored the activation of a GPCR via Gi and Gs secondary messenger signaling in a homogenous, non-imaging assay format using DiscoverX Enzyme Fragment Complementation (EFC) with β-galactosidase as the functional endpoint.

[2] = Human Serotonin Transporter (SERT, SLC6A4) Functional Antagonist Uptake Assay
Protocol: (§1) Benzofuran derivatives were evaluated for inhibiting the human 5-HT transporter (hSERT) as expressed in CHO cells using an antagonist radioligand assay (Tatsumi, M. et al. (1999), Eur. J. Pharmacol., 368: 277-283).

[3] = molecular target: Sodium-dependent serotonin transporter (Homo sapiens, UniProt P31645); experiment: as above
Protocol: as §1

Sequence of Sodium-dependent serotonin transporter (P31645 whole entry): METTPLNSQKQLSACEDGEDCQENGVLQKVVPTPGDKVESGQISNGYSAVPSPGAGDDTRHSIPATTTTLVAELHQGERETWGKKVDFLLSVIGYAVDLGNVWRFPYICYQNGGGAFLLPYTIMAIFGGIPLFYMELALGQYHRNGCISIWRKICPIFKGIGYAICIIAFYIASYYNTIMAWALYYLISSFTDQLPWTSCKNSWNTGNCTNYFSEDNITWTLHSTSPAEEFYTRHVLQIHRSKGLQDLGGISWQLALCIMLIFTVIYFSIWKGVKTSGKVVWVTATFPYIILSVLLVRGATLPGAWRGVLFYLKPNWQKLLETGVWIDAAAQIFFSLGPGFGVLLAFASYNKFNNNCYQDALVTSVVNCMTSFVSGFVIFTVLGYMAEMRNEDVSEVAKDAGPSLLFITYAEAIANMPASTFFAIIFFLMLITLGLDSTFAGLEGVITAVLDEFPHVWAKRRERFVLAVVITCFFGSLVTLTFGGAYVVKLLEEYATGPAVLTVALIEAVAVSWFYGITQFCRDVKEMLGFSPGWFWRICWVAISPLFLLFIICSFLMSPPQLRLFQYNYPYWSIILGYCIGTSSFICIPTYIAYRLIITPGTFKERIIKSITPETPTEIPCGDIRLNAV
Sequence of 5-hydroxytryptamine receptor 1B (P28222 whole entry, the tested form may be a part): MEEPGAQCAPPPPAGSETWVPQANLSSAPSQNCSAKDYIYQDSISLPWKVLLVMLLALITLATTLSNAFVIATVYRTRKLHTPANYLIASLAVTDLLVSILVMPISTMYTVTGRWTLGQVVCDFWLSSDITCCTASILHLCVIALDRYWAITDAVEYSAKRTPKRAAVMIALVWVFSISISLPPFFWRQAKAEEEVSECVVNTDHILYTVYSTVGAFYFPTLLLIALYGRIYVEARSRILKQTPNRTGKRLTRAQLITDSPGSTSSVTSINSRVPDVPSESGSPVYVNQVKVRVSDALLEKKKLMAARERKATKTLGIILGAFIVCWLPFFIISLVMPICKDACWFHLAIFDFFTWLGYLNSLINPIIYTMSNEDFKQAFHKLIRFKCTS

Work on `CCC(NC)C(=O)c1ccc2occc2c1` (single isomer, unassigned; form 1) [US20250019357, Compound (+)-BK-5MBPB] yielded a pEC50 [1] of less than 4.52.
`CNC(C)C(=O)c1ccc2occc2c1` (single isomer, unassigned; form 1) [US20250019357, Compound (-)-BK-5MAPB] showed a pEC50 [1] of 7.11.
`CNC(C)C(=O)c1ccc2occc2c1` (single isomer, unassigned; form 2) [US20250019357, Compound (+)-BK-5MAPB] gave a pEC50 [1] of 5.51.
Compound `CNC(C)C(=O)c1ccc2ccoc2c1` (single isomer, unassigned; form 2) [US20250019357, Compound (+)-BK-6MAPB] has a pEC50 [1] of less than 5.00.
Compound `CCC(NC)C(=O)c1ccc2occc2c1` (single isomer, unassigned; form 2) [US20250019357, Compound (-)-BK-5MBPB] has a pEC50 [1] of 5.18.
`CC[C@H](Cc1ccc2ccoc2c1)NC` [US20250019357, Compound R-6-MBPB] gave a pEC50 [2] of 6.76.
`CC[C@H](Cc1ccc2ccoc2c1)NC` [US20250019357, Compound R-(-)-6-MBPB] showed a pIC50 [3] of 5.24 and a pKi [3] of 5.59.
With `CC[C@@H](Cc1ccc2ccoc2c1)NC` [US20250019357, Compound S-6-MBPB] the pEC50 [2] was 7.27.
`CC[C@@H](Cc1ccc2ccoc2c1)NC` [US20250019357, Compound S-(+)-6-MBPB] gave a pIC50 [3] of 5.57 and a pKi [3] of 5.92.
